According to patent US12383526B2, “Optimized sigma-1 agonist method of responder selection and treatment” (ANAVEX LIFE SCIENCES CORP., priority 2018, dated 2025):
Marks after values point to notes of the source that are not given here.

System: subjects with mild-to-moderate AD
Test: ADCS-ADL (Activities of Daily Living) change from baseline, 57-week Phase 2a study and 208-week extension study
Type: in vivo, human
Set-up: key to unadjusted change in ADCS-ADL score, Mean ± Std. Dev: change from baseline on ADCS-ADL scale 0–78, higher = greater function
Details: for ADCS-ADL Cohen's d: week 57, compared to standard of care
Description: The present study integrates and analyzes data and samples from two consecutive clinical trials: 57-week study and 208-week study. 57-week study was a multicenter Phase 2a clinical trial of the drug ANAVEX2-73 that recruited a sample of 32 subjects with mild-to-moderate AD. It consisted of two parts: Part A was a simple randomized, open-label, two-period, cross-over, adaptive trial lasting up to 5 weeks. Each period involved one specific administration route and two possible dose levels: in one period the oral dose (30 mg or 50 mg) was administrated and in the other period an intravenous (IV) form (3 mg or 5 mg) was administered, making a total of 8 possible dose administration schemes in Part A (details available in FIG. 2A). The two periods were separated by a wash-out period of 12 days where no dose was given.
Part B, following immediately after Part A, was an open-label extension of the oral daily dose for an additional 52 weeks. The primary endpoint of 57-week study was to establish the safety and tolerability of the drug. Secondary endpoints aimed at establishing the relationship between dosing regimen and pharmacodynamics-exploratory efficacy outcomes of cognition and function. Cognition was assessed by the Mini Mental State Examination (MMSE), while functional abilities by the Alzheimer's Disease Co-operative Study—Activities of Daily Living Inventory (ADCS-ADL). Additional cognitive measures included the Cogstate Brief Battery (CBB), and functional measures of Electroencephalography and Event-Related Potential (EEG and ERP). Part B continued an adaptive oral administration scheme. Table 12 summarizes mean oral dose administration during the 57-week study study.
Due to favorable safety and tolerability profile of the 57-week study (Table 2), and in response to requests from patients and caregivers, a 208-week open-label extension study (208-week study) was carried out immediately after completion of 57-week study Part B. 208-week study enrolled the 24 subjects who completed Part B and applied similarly an adaptive daily oral administration scheme. ANAVEX2-73-003 involves continuous evaluation of safety and efficacy as measured by the MMSE and ADCS-ADL. At week 148 (interim time point for analyses), data on the subjects remaining in the study (n=21) was analyzed for efficacy outcomes. This report was drafted using data available at week 148, while ANAVEX2-73-003 is still ongoing.
Exploratory clinical efficacy in this study was defined as change from baseline of each patient's cognitive (MMSE) and functional ability (ADCS-ADL) scores. The MMSE57 is a widely used, validated instrument in clinical AD research, including as a cognitive outcome measure in drug trials. The range of the scale is from 0 to 30, with a higher score indicating higher cognitive function. The ADCS-ADL58 is undertaken in a structured caregiver interview format and assesses performance in activities of daily living of patients with AD. The scale is from 0 to 78, with a higher score indicating greater function. The ADCS-ADL has shown to have good test-retest reliability 59. The MMSE and the ADCS-ADL were assessed during pre-specified clinical site visits across 14 different time points during the 57-week study (Weeks 0 and 5 in Part A; Weeks 17, 31, 41, 53, and 57 in Part B), and 208-week study (Weeks 70, 83, 96, 109, 122, 135, and 148) studies.
Corresponding Delta scores were calculated using the difference between values at each visit and at baseline for each individual patient, with a focus on Week 57. In addition, to lower the impact of noise in MMSE and ADCS-ADL scores, a Slope was estimated using a linear regression across all available time points for each individual patient. The derived scores describe the progression of exploratory efficacy data from baseline at several specific time points (Deltas) and over a set period of time (Slope). […]

## CN(C)CC1CCOC1(c1ccccc1)c1ccccc1.Cl (centres unmarked) [ANAVEX2-73, tetrahydro-N,N-dimethyl-2,2-diphenyl-3-furanmethanamine hydrochloride]
Group 3 (n 11), Week 70
  unadjusted change in ADCS-ADL score, Mean ± Std. Dev: −5.09 ± 10.70
Group 3 (n 11), Week 83
  unadjusted change in ADCS-ADL score, Mean ± Std. Dev: −5.55 ± 12.65
Group 3 (n 11), Week 96
  unadjusted change in ADCS-ADL score, Mean ± Std. Dev: −8.64 ± 16.10
Group 3 (n 11), Week 109
  unadjusted change in ADCS-ADL score, Mean ± Std. Dev: −9.45 ± 15.13
Group 3 (n 11), Week 122
  unadjusted change in ADCS-ADL score, Mean ± Std. Dev: −9.27 ± 12.17
Group 3 (n 11), Week 135
  unadjusted change in ADCS-ADL score, Mean ± Std. Dev: 11.09 ± 16.16
Group 3 (n 11), Week 148
  unadjusted change in ADCS-ADL score, Mean ± Std. Dev: −14.73 ± 17.70
Group 4 (n 14), Week 148
  unadjusted change in ADCS-ADL score, Mean ± Std. Dev: −19.43 ± 18.50
Group 4 (n 15), Week 109
  unadjusted change in ADCS-ADL score, Mean ± Std. Dev: −12.60 ± 15.00
Group 4 (n 15), Week 122
  unadjusted change in ADCS-ADL score, Mean ± Std. Dev: −15.20 ± 17.30
Group 4 (n 16), Week 0
  unadjusted change in ADCS-ADL score, Mean ± Std. Dev: 0.00 ± 0.00
Group 4 (n 16), Week 5
  unadjusted change in ADCS-ADL score, Mean ± Std. Dev: −1.25 ± 5.54
Group 4 (n 16), Week 17
  unadjusted change in ADCS-ADL score, Mean ± Std. Dev: −0.44 ± 3.42
Group 4 (n 16), Week 31
  unadjusted change in ADCS-ADL score, Mean ± Std. Dev: −2.31 ± 6.00
Group 4 (n 16), Week 41
  unadjusted change in ADCS-ADL score, Mean ± Std. Dev: −3.31 ± 7.03
Group 4 (n 16), Week 53
  unadjusted change in ADCS-ADL score, Mean ± Std. Dev: 3.81 ± 7.24
Group 4 (n 16), Week 57
  unadjusted change in ADCS-ADL score, Mean ± Std. Dev: −3.38 ± 7.60
Group 4 (n 16), Week 70
  unadjusted change in ADCS-ADL score, Mean ± Std. Dev: −6.94 ± 10.87
Group 4 (n 16), Week 96
  unadjusted change in ADCS-ADL score, Mean ± Std. Dev: −13.25 ± 16.77
Group 4 (n 16), Week 135
  unadjusted change in ADCS-ADL score, Mean ± Std. Dev: −19.12 ± 19.67
Group 5 (n 4), Week 5
  unadjusted change in ADCS-ADL score, Mean ± Std. Dev: −3.25 ± 11.30
Group 5 (n 4), Week 31
  unadjusted change in ADCS-ADL score, Mean ± Std. Dev: −8.75 ± 3.30
Group 5 (n 4), Week 122
  unadjusted change in ADCS-ADL score, Mean ± Std. Dev: −27.75 ± 12.26
Group 5 (n 5), Week 0
  unadjusted change in ADCS-ADL score, Mean ± Std. Dev: 0.00 ± 0.00
Group 5 (n 5), Week 17
  unadjusted change in ADCS-ADL score, Mean ± Std. Dev: −4.20 ± 4.09
Group 5 (n 5), Week 41
  unadjusted change in ADCS-ADL score, Mean ± Std. Dev: 6.00 ± 3.00
Group 5 (n 5), Week 53
  unadjusted change in ADCS-ADL score, Mean ± Std. Dev: −10.00 ± 6.78
Group 5 (n 5), Week 57
  unadjusted change in ADCS-ADL score, Mean ± Std. Dev: −11.20 ± 8.93
Group 5 (n 5), Week 70
  unadjusted change in ADCS-ADL score, Mean ± Std. Dev: −14.80 ± 9.63
Group 5 (n 5), Week 83
  unadjusted change in ADCS-ADL score, Mean ± Std. Dev: −13.20 ± 11.52
Group 5 (n 5), Week 96
  unadjusted change in ADCS-ADL score, Mean ± Std. Dev: −18.60 ± 11.67
Group 5 (n 5), Week 109
  unadjusted change in ADCS-ADL score, Mean ± Std. Dev: −19.20 ± 13.31
Group 5 (n 5), Week 135
  unadjusted change in ADCS-ADL score, Mean ± Std. Dev: −24.00 ± 14.65
Group 5 (n 5), Week 148
  unadjusted change in ADCS-ADL score, Mean ± Std. Dev: −26.00 ± 16.17
Group 6 (n 2), Week 5
  unadjusted change in ADCS-ADL score, Mean ± Std. Dev: 0.50 ± 9.19
Group 6 (n 2), Week 31
  unadjusted change in ADCS-ADL score, Mean ± Std. Dev: −10.50 ± 3.54
Group 6 (n 3), Week 0
  unadjusted change in ADCS-ADL score, Mean ± Std. Dev: 0.00 ± 0.00
Group 6 (n 3), Week 17
  unadjusted change in ADCS-ADL score, Mean ± Std. Dev: −5.00 ± 5.20
Group 6 (n 3), Week 41
  unadjusted change in ADCS-ADL score, Mean ± Std. Dev: −6.67 ± 4.04
Group 6 (n 3), Week 53
  unadjusted change in ADCS-ADL score, Mean ± Std. Dev: −12.67 ± 8.02
Group 6 (n 3), Week 57
  unadjusted change in ADCS-ADL score, Mean ± Std. Dev: −14.67 ± 10.50
Group 6 (n 3), Week 70
  unadjusted change in ADCS-ADL score, Mean ± Std. Dev: −18.00 ± 12.12
Group 6 (n 3), Week 83
  unadjusted change in ADCS-ADL score, Mean ± Std. Dev: −17.00 ± 14.11
Group 6 (n 3), Week 96
  unadjusted change in ADCS-ADL score, Mean ± Std. Dev: −26.00 ± 8.19
Group 6 (n 3), Week 109
  unadjusted change in ADCS-ADL score, Mean ± Std. Dev: 25.33 ± 14.47
Group 6 (n 3), Week 122
  unadjusted change in ADCS-ADL score, Mean ± Std. Dev: −32.67 ± 8.96
Group 6 (n 3), Week 135
  unadjusted change in ADCS-ADL score, Mean ± Std. Dev: −32.00 ± 13.75
Group 6 (n 3), Week 148
  unadjusted change in ADCS-ADL score, Mean ± Std. Dev: −34.33 ± 15.82
MMRM-LME, over 148 weeks
  favorable difference in adjusted ADCS-ADL, higher concentration arm compared with low/medium arm: 88%
Plasma concentration groups, week 57, p=0.03
  effect of higher concentrations on Delta ADCS-ADL scores: improved
Absence of COMT_L146fs variant & Baseline MMSE ≥20, N 11
  ADCS-ADL Cohen's d: 0.89**
Absence of COMT_L146fs variant, N 16
  ADCS-ADL Cohen's d: 0.57*
Absence of SIGMAR1_Q2P variant, N 16
  ADCS-ADL Cohen's d: 0.43
Absence of SIGNAR1_Q2P variant & Baseline MMSE ≥20, N 11
  ADCS-ADL Cohen's d: 0.76*
All, N 21
  ADCS-ADL Cohen's d: 0.18
Baseline MMSE ≥20, N 13
  ADCS-ADL Cohen's d: 0.66*
